ChEMBL document CHEMBL3632497, “Insights into Structure-Activity Relationships of Bacterial RNA Polymerase Inhibiting Corallopyronin Derivatives” (2015)
In brackets after ≈: the same amount, converted by molar mass. Activity calls are given as the source filed them. No cut-off for these calls is given here.

Legend:
Staphylococcus simulans = assay: Antibacterial activity against Staphylococcus simulans 22 after 24 hrs; type: functional; details: Staphylococcus simulans, 22, 24 h
Mycolicibacterium phlei = assay: Antibacterial activity against Mycobacterium phlei after 24 hrs; type: functional
Bacillus licheniformis [1] = assay: Antibacterial activity against Bacillus licheniformis MW3 after 24 hrs; type: functional; details: MW3, 24 h
Bacillus cereus = assay: Antibacterial activity against Bacillus cereus after 24 hrs; type: functional
Bacillus licheniformis [2] = assay: Antibacterial activity against Bacillus licheniformis DSM13 after 24 hrs; type: functional; details: DSM 13 = ATCC 14580, 24 h
Bacillus subtilis = assay: Antibacterial activity against Bacillus subtilis 168 after 24 hrs; type: functional; details: subsp. subtilis str. 168, 24 h
Micrococcus luteus = assay: Antibacterial activity against Micrococcus luteus ATCC 4698 after 24 hrs; type: functional; details: ATCC 4698, 24 h
[3] = test system: Mycolicibacterium smegmatis; assay: Antibacterial activity against Mycobacterium smegmatis after 24 hrs; type: functional
Staphylococcus aureus [4] = assay: Antibacterial activity against Staphylococcus aureus SG511 after 24 hrs; type: functional; details: SG511, 24 h
Wolbachia [5] = assay: Antibacterial activity against Wolbachia infected in C6/36 cells assessed as decrease in 16s rRNA copies at 0.01, 0.1 and 0.5 microg/ml by qPCR analysis; type: functional, cell-based
Staphylococcus aureus [6] = assay: Antibacterial activity against Staphylococcus aureus; type: functional
Priestia megaterium = assay: Antibacterial activity against Bacillus megaterium; type: functional
Wolbachia [7] = assay: Antibacterial activity against Wolbachia infected in C6/36 cells assessed as decrease in 16s rRNA copies by qPCR analysis; type: functional, cell-based
Escherichia coli = assay: Antibacterial activity against Escherichia coli; type: functional, organism-based
Wolbachia [8] = assay: Antibacterial activity against Wolbachia; type: functional

Row | SMILES | MIC (Staphylococcus simulans) | MIC (Mycolicibacterium phlei) | MIC (Bacillus licheniformis [1]) | further results
1 | C/C=C/C/C=C(/C)[C@@H](CC/C(C)=C/C=C(\C)C(=O)c1c(O)cc([C@H](C)CC/C=C/NC(=O)OC)oc1=O)OC(=O)[C@@](OC)(c1ccccc1)C(F)(F)F | 64 µg/mL (≈ 86 µM) | > 64 µg/mL | > 16 µg/mL | 
2 | C/C=C/C/C=C(/C)CCC/C(C)=C/C=C(\C)C(=O)c1c(O)cc([C@H](C)CC/C=C/NC(=O)OC)oc1=O | 4 µg/mL (≈ 7.82 µM) |  |  | MIC (Bacillus cereus): 2 µg/mL (≈ 3.91 µM); MIC (Bacillus licheniformis [2]): 4 µg/mL (≈ 7.82 µM); MIC (Bacillus subtilis): 32 µg/mL (≈ 62.5 µM); MIC (Micrococcus luteus): 4 µg/mL (≈ 7.82 µM); MIC [3]: > 64 µg/mL; MIC (Staphylococcus aureus [4]): 2 µg/mL (≈ 3.91 µM); inhibition (Wolbachia [5]): Active
3 | C/C=C/C/C=C(/C)C1CCC(C)(C/C=C(\C)C(=O)c2c(O)cc([C@H](C)CC/C=C/NC(=O)OC)oc2=O)O1 (some centres not stated) |  |  |  | MIC (Staphylococcus aureus [6]): 0.4 µg/mL (≈ 0.758 µM); MIC (Priestia megaterium): 1.6 µg/mL (≈ 3.03 µM)
4 | CC/C=C/C/C=C(/C)[C@H](O)CC/C(C)=C/C=C(\C)C(=O)c1c(O)cc([C@H](C)CC/C=C/NC(=O)OC)oc1=O |  |  |  | MIC (Staphylococcus aureus [6]): 0.4 µg/mL (≈ 0.738 µM); MIC (Priestia megaterium): 1.6 µg/mL (≈ 2.95 µM)
5 | C/C=C/C/C=C(/C)[C@@H](CC/C(C)=C/C=C(\C)C(=O)c1c(O)cc([C@H](C)CC/C=C/NC(=O)OC)oc1=O)OC(=O)COC(C)=O | > 64 µg/mL |  | > 64 µg/mL | 
6 | C/C=C/C/C=C(/C)[C@@H](CC/C(C)=C/C=C(\C)C(=O)c1c(O)cc([C@H](C)CC/C=C/NC(=O)OC)oc1=O)OC(=O)CCCCCCCCC | > 64 µg/mL |  | 64 µg/mL (≈ 93.9 µM) | 
7 | C/C=C/C/C=C(\C)C(O)CC/C(C)=C/C=C(\C)C(=O)c1c(O)cc([C@H](C)CC/C=C/NC(=O)OC)oc1=O (some centres not stated) [CORALLOPYRONIN A] | 1 µg/mL (≈ 1.9 µM) | > 64 µg/mL | 64 µg/mL (≈ 121 µM) | MIC (Bacillus cereus): 2 µg/mL (≈ 3.79 µM); MIC (Bacillus licheniformis [2]): 2 µg/mL (≈ 3.79 µM); MIC (Bacillus subtilis): 16 µg/mL (≈ 30.3 µM); MIC (Micrococcus luteus): 1 µg/mL (≈ 1.9 µM); MIC [3]: > 64 µg/mL; MIC (Staphylococcus aureus [4]): 0.5 µg/mL (≈ 0.948 µM); inhibition (Wolbachia [7]): Dose-dependent effect
8 | CCCCCCCCCCCCC/C=C/[C@@H](O)[C@H](CO)NC(=O)CCCCCCNC(=O)OC |  |  |  | Activity (Priestia megaterium): inactive; Activity (Escherichia coli): inactive; Activity (Wolbachia [8]): inactive
9 | C/C=C/C/C=C(/C)C(=O)CC/C(C)=C/C=C(\C)C(=O)c1c(O)cc([C@H](C)CC/C=C/NC(=O)OC)oc1=O | 16 µg/mL (≈ 30.4 µM) |  | 32 µg/mL (≈ 60.9 µM) | 
10 | C/C=C/C/C=C(/C)C(O)CC/C(C)=C\C=C(/C)C(=O)c1c(O)cc([C@H](C)CC/C=C/NC(=O)OC)oc1=O (some centres not stated) |  |  |  | MIC (Staphylococcus aureus [6]): 0.1 µg/mL (≈ 0.19 µM); MIC (Priestia megaterium): 0.8 µg/mL (≈ 1.52 µM)
11 | C/C=C/C/C=C(/C)[C@@H](CC/C(C)=C/C=C(\C)C(=O)c1c(O)cc([C@H](C)CC/C=C/NC(=O)OC)oc1=O)OC(=O)[C@](OC)(c1ccccc1)C(F)(F)F | 32 µg/mL (≈ 43 µM) | > 64 µg/mL | > 16 µg/mL | 

Now from value to compound, other results behind:

Row | MIC (Staphylococcus simulans) | MIC (Mycolicibacterium phlei) | MIC (Bacillus licheniformis [1]) | SMILES | further results
12 | 64 µg/mL (≈ 112 µM) | > 64 µg/mL | 64 µg/mL (≈ 112 µM) | C/C=C/C/C=C(/C)[C@@H](CC/C(C)=C/C=C(\C)C(=O)c1c(O)cc([C@H](C)CC/C=C/NC(=O)OC)oc1=O)OC(C)=O | 
13 | > 64 µg/mL |  | > 64 µg/mL | C/C=C/C/C=C(/C)[C@@H](CC/C(C)=C/C=C(\C)C(=O)c1c(O)cc([C@H](C)CC/C=C/NC(=O)OC)oc1=O)OC(=O)c1ccc(F)cc1 | 
14 | > 64 µg/mL |  | > 64 µg/mL | C/C=C/C/C=C(/C)[C@@H](CC/C(C)=C/C=C(\C)C(=O)c1c(O)cc([C@H](C)CC/C=C/NC(=O)OC)oc1=O)OC(=O)c1cccs1 | 
15 | 64 µg/mL (≈ 103 µM) | > 64 µg/mL | 64 µg/mL (≈ 103 µM) | C/C=C/C/C=C(/C)[C@@H](CC/C(C)=C/C=C(\C)C(=O)c1c(O)cc([C@H](C)CC/C=C/NC(=O)OC)oc1=O)OC(=O)c1ccco1 | 
16 | > 64 µg/mL | > 64 µg/mL | 64 µg/mL (≈ 101 µM) | C/C=C/C/C=C(/C)[C@@H](CC/C(C)=C/C=C(\C)C(=O)c1c(O)cc([C@H](C)CC/C=C/NC(=O)OC)oc1=O)OC(=O)c1ccccc1 | 
